Laboratory results reported in patent US20060148850A1, “4-{'3-(Sulfonylamino) phenyl!'1-(cyclymethyl) piperidin-4-ylidene! methyl}benazmide derivativess as delta opioid receptor ligands for the treatment of pain, anxiety and functional gastrointestinal disorder” (AstraZeneca AB, priority 2003, published 2006).
Where two headings read alike, the source gives them in different places.

Tests used:
cloned human δ receptors [1] = molecular target: T1, cloned human δ receptors (Homo sapiens, UniProt P41143); experiment: Human δ receptor functional assay (GTP[γ]35S binding), high and low receptor expression; type: biochemical
T1 construct: expressed in transfected cells; host or cells: HEK-293S cells
T1 sequence (P41143 whole entry): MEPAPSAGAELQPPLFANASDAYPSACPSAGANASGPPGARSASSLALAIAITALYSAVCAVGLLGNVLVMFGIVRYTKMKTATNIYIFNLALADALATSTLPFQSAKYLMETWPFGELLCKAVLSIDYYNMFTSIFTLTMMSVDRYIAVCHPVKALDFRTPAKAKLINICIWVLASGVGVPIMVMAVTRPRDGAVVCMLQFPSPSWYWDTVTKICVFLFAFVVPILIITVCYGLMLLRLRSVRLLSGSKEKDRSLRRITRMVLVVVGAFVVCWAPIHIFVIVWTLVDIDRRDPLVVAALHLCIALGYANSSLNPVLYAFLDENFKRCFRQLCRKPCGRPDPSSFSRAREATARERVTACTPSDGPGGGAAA
Experimental: Human 293S cells expressing cloned human κ, δ and μ receptors and neomycin resistance are grown in suspension at 37° C. and 5% CO2 in shaker flasks containing calcium-free DMEM10% FBS, 5% BCS, 0.1% Pluronic F-68, and 600 μg/ml geneticin.
Cells are pelleted and resuspended in lysis buffer (50 mM Tris, pH 7.0, 2.5 mM EDTA, with PMSF added just prior to use to 0.1 mM from a 0.1 M stock in ethanol), incubated on ice for 15 min, then homogenized with a polytron for 30 sec. The suspension is spun at 1000 g (max) for 10 min at 4° C. The supernatant is saved on ice and the pellets resuspended and spun as before. The supernatants from both spins are combined and spun at 46,000 g(max) for 30 min. The pellets are resuspended in cold Tris buffer (50 mM Tris/Cl, pH 7.0) and spun again. The final pellets are resuspended in membrane buffer ( 50 mM Tris, 0.32 M sucrose, pH 7.0). Aliquots (1 ml) in polypropylene tubes are frozen in dry ice/ethanol and stored at −70° C. until use. The protein concentrations are determined by a modified Lowry assay with sodium dodecyl sulfate.
The agonist activity of the compounds is measured by determining the degree to which the compounds receptor complex activates the binding of GTP to G-proteins to which the receptors are coupled. In the GTP binding assay, GTP[γ]^35S is combined with test compounds and membranes from HEK-293S cells expressing the cloned human opioid receptors or from homogenised rat or mouse brain. Agonists stimulate GTP[γ]^35S binding in these membranes. The EC50 and Emax values of compounds are determined from dose-response curves. Right shifts of the dose response curve by the delta antagonist naltrindole are performed to verify that agonist activity is mediated through delta receptors. For human […] functional assays, EC50 (low) is measured when the human δ receptors used in the assay were expressed at lower levels in comparison with those used in determining EC50 (high). The Emax values were determined in relation to the standard δ agonist SNC80, i.e., higher than 100% is a compound that have better efficacy than SNC80.
Rat brain membranes are thawed at 37° C., passed 3 times through a 25-gauge blunt-end needle and diluted in the GTPYS binding (50 mM Hepes, 20 mM NaOH, 100 mM NaCl, 1 mM EDTA, 5 mM MgCl2, pH 7.4, Add fresh: 1 mM DTT, 0.1% BSA). 120 μM GDP final is added membranes dilutions. The EC50 and Emax of compounds are evaluated from 10-point dose-response curves done in 300 μl with the appropriate amount of membrane protein (20 μg/well) and 100000-130000 dpm of GTPγ^35S per well (0.11-0.14 nM). The basal and maximal stimulated binding are determined in absence and presence of 3 μM SNC-80. The assay performed on HEK 293s cells stably expressing cloned Delta receptors is done in a slightly different buffer (50 mM Hepes, 20 mM NaOH, 200 mM NaCl, 1 mM EDTA, 5 mM MgCl2, pH 7.4, Add fresh: 0.5% BSA, no DTT) and with a 3 μM final conc. of GDP.

cloned human δ receptors [2] = molecular target: T1, cloned human δ receptors; experiment: Human δ receptor binding assay (125I-Deltorphin II displacement)
cloned human μ receptors = molecular target: T2, cloned human μ receptors (Homo sapiens, UniProt P35372); experiment: Human μ receptor binding assay (125I-FK33824 displacement)
T2 construct: expressed in transfected cells; host or cells: Human 293S cells
T2 sequence (P35372 whole entry): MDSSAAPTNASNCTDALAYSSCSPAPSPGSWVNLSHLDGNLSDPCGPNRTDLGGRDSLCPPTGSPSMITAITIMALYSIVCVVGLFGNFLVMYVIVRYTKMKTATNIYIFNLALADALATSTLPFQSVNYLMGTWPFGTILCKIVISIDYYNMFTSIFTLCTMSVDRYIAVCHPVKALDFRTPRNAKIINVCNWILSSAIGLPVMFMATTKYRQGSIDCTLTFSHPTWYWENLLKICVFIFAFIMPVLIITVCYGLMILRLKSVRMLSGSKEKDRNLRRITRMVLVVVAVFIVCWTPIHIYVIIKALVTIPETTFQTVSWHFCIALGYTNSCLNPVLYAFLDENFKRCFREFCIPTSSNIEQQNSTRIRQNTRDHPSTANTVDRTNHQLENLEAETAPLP

cloned human κ receptors = cloned human κ receptors (Homo sapiens, UniProt P41145); experiment: Human κ receptor binding assay (125I-DPDYN displacement); conditions: Table 1
cloned human κ receptors, sequence (P41145 whole entry): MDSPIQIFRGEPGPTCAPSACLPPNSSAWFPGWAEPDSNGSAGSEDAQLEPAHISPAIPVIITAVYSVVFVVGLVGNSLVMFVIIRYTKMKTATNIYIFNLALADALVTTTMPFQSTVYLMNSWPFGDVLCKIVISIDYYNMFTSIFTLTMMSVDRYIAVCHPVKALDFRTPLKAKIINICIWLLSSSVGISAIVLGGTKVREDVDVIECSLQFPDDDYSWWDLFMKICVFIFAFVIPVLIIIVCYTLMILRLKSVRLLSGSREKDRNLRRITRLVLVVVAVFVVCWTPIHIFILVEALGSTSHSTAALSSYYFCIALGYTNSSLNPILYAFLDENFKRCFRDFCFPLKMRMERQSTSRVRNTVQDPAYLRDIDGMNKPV

[3] = molecular target: T3, δ receptors in rat brain membranes (Rattus norvegicus, UniProt P33533); experiment: Rat brain functional assay (GTPγ35S binding); type: biochemical
T3 construct: membranes from HEK-293S cells expressing the cloned human opioid receptors or from homogenised rat or mouse brain; from tissue; host or cells: rat brain
T3 sequence (P33533 whole entry): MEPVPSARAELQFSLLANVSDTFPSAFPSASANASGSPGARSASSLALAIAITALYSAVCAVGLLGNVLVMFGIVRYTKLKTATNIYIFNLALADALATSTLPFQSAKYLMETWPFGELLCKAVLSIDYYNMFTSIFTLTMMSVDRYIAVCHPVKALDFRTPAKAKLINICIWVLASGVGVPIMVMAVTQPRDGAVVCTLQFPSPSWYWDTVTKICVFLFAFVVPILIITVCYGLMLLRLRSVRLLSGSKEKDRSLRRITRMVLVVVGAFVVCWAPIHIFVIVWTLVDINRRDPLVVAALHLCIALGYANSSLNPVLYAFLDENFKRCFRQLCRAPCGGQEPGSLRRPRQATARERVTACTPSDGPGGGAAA
Experimental: Rat brains are weighed and rinsed in ice-cold PBS (containing 2.5 mM EDTA, pH 7.4). The brains are homogenized with a polytron for 30 sec (rat) in ice-cold lysis buffer (50 mM Tris, pH 7.0,2.5 mM EDTA, with phenylmethylsulfonyl fluoride added just prior use to […] from a 0.5M stock in DMSO:ethanol).
The agonist activity of the compounds is measured by determining the degree to which the compounds receptor complex activates the binding of GTP to G-proteins to which the receptors are coupled. In the GTP binding assay, GTP[γ]^35S is combined with test compounds and membranes from HEK-293S cells expressing the cloned human opioid receptors or from homogenised rat or mouse brain. […] The EC50 and Emax values of compounds are determined from dose-response curves. […] For human a receptor functional assays, EC50 (low) is measured when the human δ receptors used in the assay were expressed at lower levels in comparison with those used in determining EC50 (high). […]
Rat brain membranes are thawed at 37° C., passed 3 times through a 25-gauge blunt-end needle and diluted in the GTPYS binding (50 mM Hepes, 20 mM NaOH, 100 mM NaCl, 1 mM EDTA, 5 mM MgCl2, pH 7.4, Add fresh: 1 mM DTT, 0.1% BSA). […] The EC50 and Emax of compounds are evaluated from 10-point dose-response curves done in 300 μl with the appropriate amount of membrane protein (20 μg/well) and 100000-130000 dpm of GTPγ^35S per well (0.11-0.14 nM). […]

[4] = Table 2, lower expression, relative to SNC80, range over compounds 1,2,4,5, read-out: Human δ %EMax (low)

## CCN(CC)C(=O)c1ccc(C(=C2CCN(Cc3nccs3)CC2)c2cccc(NS(C)(=O)=O)c2)cc1 [Compound 5]
Cloned human δ receptors [1]
  EC50: 5.25 to 19.3 nM
Cloned human δ receptors [1]; [4]
  Emax: 106 to 126%
Cloned human δ receptors [2]
  IC50: 0.18 to 0.35 nM
Cloned human μ receptors
  IC50: 77.9 to 301 nM

## CCN(CC)C(=O)c1ccc(C(=C2CCN(Cc3cccs3)CC2)c2cccc(NS(C)(=O)=O)c2)cc1 [Compound 1, N,N-diethyl-4-{{3-[(methylsulfonyl)amino]phenyl}[1-(thien-2-ylmethyl)piperidin-4-ylidene]methyl}benzamide]
Cloned human δ receptors [1]
  EC50: 5.25 to 19.3 nM
Cloned human δ receptors [1]; [4]
  Emax: 106 to 126%
Cloned human δ receptors [2]
  IC50: 0.18 to 0.35 nM
Cloned human μ receptors
  IC50: 77.9 to 301 nM

## CCN(CC)C(=O)c1ccc(C(=C2CCN(Cc3ccco3)CC2)c2cccc(NS(C)(=O)=O)c2)cc1 [Compound 2, N,N-diethyl-4-[[l-(2-furanylmethyl)-4-piperidinylidene][3-[(methylsulfonyl)amino]phenyl]methyl]-benzamide]
Cloned human δ receptors [1]
  EC50: 5.25 to 19.3 nM
Cloned human δ receptors [1]; [4]
  Emax: 106 to 126%
Cloned human δ receptors [2]
  IC50: 0.18 to 0.35 nM
Cloned human μ receptors
  IC50: 77.9 to 301 nM

## CCN(CC)C(=O)c1ccc(C(=C2CCN(Cc3cccnc3)CC2)c2cccc(NS(C)(=O)=O)c2)cc1 [Compound 4, N,N-diethyl-4-[[3-[(methylsulfonyl)amino]phenyl][1-(3-pyridinylmethyl)4-piperidinylidene]methyl]-benzamide]
Cloned human δ receptors [1]
  EC50: 5.25 to 19.3 nM
Cloned human δ receptors [1]; [4]
  Emax: 106 to 126%
Cloned human δ receptors [2]
  IC50: 0.18 to 0.35 nM
Cloned human μ receptors
  IC50: 77.9 to 301 nM

## CCN(CC)C(=O)c1ccc(C(=C2CCN(Cc3ccccc3)CC2)c2cccc(NS(C)(=O)=O)c2)cc1 [Compound 3, N,N-diethyl-4-[[1-(phenylmethyl)-4-piperidinylidene][3-[(methylsulfonyl)amino]phenyl]methyl]-benzamide]
Cloned human δ receptors [1]
  EC50: 0.53 nM
Cloned human δ receptors [1]; Table 1, higher expression, relative to standard δ agonist SNC80, read-out: Human δ % EMax (high)
  Emax: 99%
Cloned human δ receptors [2]
  IC50: 0.56 nM
Cloned human κ receptors
  IC50: 1050 nM
Cloned human μ receptors
  IC50: 35 nM
[3]
  EC50: 1.32 nM
[3]; Table 1, rat brain membranes, relative to SNC80
  Emax: 145%
